ChEMBL document CHEMBL3124792, “Discovery and preclinical characterization of the cyclopropylindolobenzazepine BMS-791325, a potent allosteric inhibitor of the hepatitis C virus NS5B polymerase” (J Med Chem, 2014)
Converted amounts (≈) assume the structure as drawn.

Assays:
[1] = Cytotoxicity against human HuH7 cells by Alamar blue assay; type: cell-based; conditions: Huh-7 cells
[2] = Inhibition of HCV Con1 genotype 1b recombinant wild-type NS5B polymerase-mediated incorporation of radiolabeled nucleotides by scintillation proximity assay; parameters: species or system Hepatitis C virus (isolate Con1)
Hepatitis C virus [3] = test: Antiviral activity against Hepatitis C virus Con1 genotype 1b infected in human HuH7 cells after 3 days by FRET assay in presence of 40% human serum; type: functional, organism-based, Hepacivirus hominis; conditions: isolate Con1, Huh-7, 72 h
Hepatitis C virus [4] = test: Antiviral activity against Hepatitis C virus H77c genotype 1a infected in human HuH7 cells after 3 days by FRET assay; type: functional, organism-based, Hepacivirus hominis; conditions: genotype 1a H77, Huh-7, 72 h
[5] = target: RNA-directed RNA polymerase (Hepacivirus hominis, UniProt O39930, P495A); test: Inhibition of HCV Con1 genotype 1b NS5B RNA dependent RNA polymerase P495A mutant-mediated incorporation of radiolabeled nucleotides by scintillation proximity assay; parameters: species or system Hepatitis C virus (isolate Con1)
Hepatitis C virus [6] = test: Antiviral activity against Hepatitis C virus Con1 genotype 1b infected in human HuH7 cells after 3 days by FRET assay; type: functional, organism-based, Hepacivirus hominis; conditions: isolate Con1, Huh-7, 72 h
[7] = Solubility of the compound in amorphous form in phosphate buffer at pH 6.5; type: physicochemical
[8] = Permeability of the compound at pH 7.4 by PAMPA; type: physicochemical; conditions: read-out: permeability
PXR (NR1I2) = target: T1, PXR (NR1I2) (Homo sapiens, UniProt O75469); test: Transactivation of human PXR expressed in human HepG2 cells by luciferase reporter gene assay relative to control; type: cell-based; conditions: HepG2 cells expressing human PXR, read-out: %max
T1 sequence (O75469 whole entry): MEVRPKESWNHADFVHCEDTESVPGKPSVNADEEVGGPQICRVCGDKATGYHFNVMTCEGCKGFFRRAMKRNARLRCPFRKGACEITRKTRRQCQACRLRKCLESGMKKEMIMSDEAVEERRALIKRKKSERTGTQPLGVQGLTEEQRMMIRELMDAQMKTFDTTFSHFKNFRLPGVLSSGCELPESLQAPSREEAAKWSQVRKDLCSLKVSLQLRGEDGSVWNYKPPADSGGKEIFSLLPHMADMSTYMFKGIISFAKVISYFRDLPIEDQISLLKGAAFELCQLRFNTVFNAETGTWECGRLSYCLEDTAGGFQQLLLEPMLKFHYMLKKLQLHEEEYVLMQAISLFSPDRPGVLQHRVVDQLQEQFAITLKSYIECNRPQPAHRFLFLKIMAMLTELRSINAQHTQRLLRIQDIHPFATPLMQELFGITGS

Liver microsome [9] = conditions: human, microsomes
Liver microsome [10] = conditions: rat, microsomes
[11] = target: T2, Nuclear receptor subfamily 1 group I member 2 (Homo sapiens, UniProt O75469); test: Transactivation of human PXR expressed in human HepG2 cells by luciferase reporter gene assay; type: cell-based
T2 sequence (O75469 whole entry): T1 sequence (O75469 whole entry)

Chain of RNA-directed RNA polymerase (O39930 entry or part of it P495A): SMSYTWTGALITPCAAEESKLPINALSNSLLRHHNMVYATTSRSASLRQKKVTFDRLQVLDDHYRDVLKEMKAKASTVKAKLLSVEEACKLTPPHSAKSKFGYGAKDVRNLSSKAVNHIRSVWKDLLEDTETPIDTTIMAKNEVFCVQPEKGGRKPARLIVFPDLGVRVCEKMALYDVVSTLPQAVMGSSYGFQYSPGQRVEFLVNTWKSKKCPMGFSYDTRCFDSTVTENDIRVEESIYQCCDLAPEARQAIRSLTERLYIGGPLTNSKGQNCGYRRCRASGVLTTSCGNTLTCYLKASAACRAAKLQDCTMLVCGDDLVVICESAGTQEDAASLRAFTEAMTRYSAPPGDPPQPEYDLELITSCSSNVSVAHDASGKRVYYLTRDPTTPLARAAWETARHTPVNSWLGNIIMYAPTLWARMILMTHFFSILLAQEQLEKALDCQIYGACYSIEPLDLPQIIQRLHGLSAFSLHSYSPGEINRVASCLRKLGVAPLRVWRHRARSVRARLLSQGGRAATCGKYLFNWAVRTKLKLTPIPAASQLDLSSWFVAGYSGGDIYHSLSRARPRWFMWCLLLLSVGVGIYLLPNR

| EC50 (Hepatitis C virus [3]) [nM] | solubility [7] [µg/mL] | Papp [8] [×10⁻⁶ cm/s] | Emax (PXR (NR1I2)) [%] | Stability (Liver microsome [9]) [%] | Stability (Liver microsome [10]) [%] | EC50 [11] [µM] | EC20 ([11]; human, hepg2) [µM] | SMILES | CC50 [1] [µM] | IC50 [2] [nM] | EC50 (Hepatitis C virus [4]) [nM] | EC50 [5] [nM] | EC50 (Hepatitis C virus [6]) [nM] |
| --- | --- | --- | --- | --- | --- | --- | --- | --- | --- | --- | --- | --- | --- |
|  |  |  |  |  |  |  |  | COc1ccc2c(c1)C=C(C(=O)N1CCOCC1)Cn1c-2c(C2CCCCC2)c2ccc(C(=O)NS(=O)(=O)N(C)C)cc21 | > 10 | 49 | 61 | 239 | 62 |
| 55 | < 1 | 14 |  | 91 | 100 | > 50 |  | COc1ccc2c(c1)C1CC1(C(=O)N1C[C@@H](C)N[C@@H](C)C1)Cn1c-2c(C2CCCCC2)c2ccc(C(=O)NS(=O)(=O)N(C)C)cc21 (mixture of isomers) | 15 |  | 21 |  | 29 |
| 114 |  |  | 144 |  |  | 0.6 |  | COc1ccc2c(c1)C1CC1(C(=O)N1CC3CCC(C1)O3)Cn1c-2c(C2CCCCC2)c2ccc(C(=O)NS(=O)(=O)N(C)C)cc21 (racemic) | > 10 |  | 7 |  | 31 |
|  |  |  | 3 | 87 | 100 | > 50 |  | COc1ccc2c(c1)C1CC1(C(=O)N1CC(O)(c3ccc(F)cc3)C1)Cn1c-2c(C2CCCCC2)c2ccc(C(=O)NS(=O)(=O)N(C)C)cc21 (racemic) | 7 |  | 54 |  | 220 |
| 39 |  |  |  | 100 | 100 | > 50 |  | COc1ccc2c(c1)C1CC1(C(=O)N1C3CC1CN(C)C3)Cn1c-2c(C2CCCCC2)c2ccc(C(=O)NS(=O)(=O)N(C)C)cc21 (racemic) | 10 |  | 4 |  | 12 |
| 89 | 18 (≈ 27.2 µM) | 34 |  | 93 | 100 | > 50 |  | COc1ccc2c(c1)C1CC1(C(=O)N1CCN(C(C)=O)CC1)Cn1c-2c(C2CCCCC2)c2ccc(C(=O)NS(=O)(=O)N(C)C)cc21 (racemic) | > 10 |  | 45 |  | 98 |
|  |  |  |  |  |  |  |  | O=C(O)c1ccc2c(C3CCCCC3)c3n(c2c1)CC(C(=O)N1CCOCC1)=Cc1ccccc1-3 | > 10 | 106 | 404 | 3400 | 359 |
| 65 |  | 74 | 14 | 72 | 100 | > 50 |  | COc1ccc2c(c1)C1CC1(C(=O)N1CC(O)(C(C)C)C1)Cn1c-2c(C2CCCCC2)c2ccc(C(=O)NS(=O)(=O)N(C)C)cc21 (racemic) | 6.5 |  | < 14 |  | 23 |
|  |  |  |  |  |  |  |  | CN(C)S(=O)(=O)NC(=O)c1ccc2c(C3CCCCC3)c3n(c2c1)CC(C(=O)N1CCOCC1)=Cc1ccccc1-3 | > 10 | 52 | 119 | 1100 | 148 |
|  |  |  |  |  |  |  |  | CN(C)S(=O)(=O)NC(=O)c1ccc2c(C3CCCCC3)c3n(c2c1)C[C@]1(C(=O)N2CCOCC2)C[C@@H]1c1ccccc1-3 | > 10 | 165 | 259 | 630 | 143 |
| 68 |  | 19 | 12 | 100 | 100 | > 50 |  | COc1ccc2c(c1)C1CC1(C(=O)N1CC(O)(C3CC3)C1)Cn1c-2c(C2CCCCC2)c2ccc(C(=O)NS(=O)(=O)N(C)C)cc21 (racemic) | > 10 |  | < 14 |  | 29 |
|  |  | 39 | 10 | 72 | 100 | > 50 |  | COc1ccc2c(c1)C1CC1(C(=O)N1CC(O)(c3ccccc3)C1)Cn1c-2c(C2CCCCC2)c2ccc(C(=O)NS(=O)(=O)N(C)C)cc21 (racemic) | 8 |  | 68 |  | 160 |
| 59 | 18 (≈ 26.1 µM) | 43 |  | 64 | 93 | > 50 |  | COc1ccc2c(c1)C1CC1(C(=O)N1CCN(C(=O)N(C)C)CC1)Cn1c-2c(C2CCCCC2)c2ccc(C(=O)NS(=O)(=O)N(C)C)cc21 (racemic) | > 10 |  | 23 |  | 54 |
| 98 |  |  |  |  |  |  | 2.8 | COc1ccc2c(c1)C1CC1(C(=O)N1C[C@@H](C)O[C@@H](C)C1)Cn1c-2c(C2CCCCC2)c2ccc(C(=O)NS(=O)(=O)N(C)C)cc21 (mixture of isomers) | 9 |  | 12 |  | 24 |
| 115 |  | 47 | 32 | 100 | 100 | > 3 |  | COc1ccc2c(c1)C1CC1(C(=O)N1CC(O)(C(F)(F)F)C1)Cn1c-2c(C2CCCCC2)c2ccc(C(=O)NS(=O)(=O)N(C)C)cc21 (racemic) | > 10 |  | 15 |  | 50 |
|  |  |  |  |  |  |  |  | O=C(O)c1ccc2c(C3CCCCC3)c3n(c2c1)C[C@]1(C(=O)N2CCOCC2)C[C@@H]1c1ccccc1-3 | > 10 | 93 | 472 | 890 | 336 |

| SMILES | EC50 (Hepatitis C virus [3]) [nM] | solubility [7] [µg/mL] | Papp [8] [×10⁻⁶ cm/s] | Emax (PXR (NR1I2)) [%] | Stability (Liver microsome [9]) [%] | Stability (Liver microsome [10]) [%] | EC50 [11] [µM] | EC20 ([11]; human, hepg2) [µM] | CC50 [1] [µM] | IC50 [2] [nM] | EC50 (Hepatitis C virus [4]) [nM] | EC50 [5] [nM] | EC50 (Hepatitis C virus [6]) [nM] |
| --- | --- | --- | --- | --- | --- | --- | --- | --- | --- | --- | --- | --- | --- |
| O=C(O)c1ccc2c(C3CCCCC3)c3n(c2c1)C[C@@]1(C(=O)N2CCOCC2)C[C@H]1c1ccccc1-3 | 484 |  |  |  |  |  |  |  | > 10 | 22 | 41 | 380 | 51 |
| COc1ccc2c(c1)C1CC1(C(=O)N1C3CCC1CN(C)C3)Cn1c-2c(C2CCCCC2)c2ccc(C(=O)NS(=O)(=O)N(C)C)cc21 (racemic) | 45 | 44 (≈ 66.7 µM) | 77 | 21 | 90 | 100 |  |  | > 10 |  | 5 |  | 13 |
| COc1ccc2c(c1)C1CC1(C(=O)N1CC3CCC(C1)N3)Cn1c-2c(C2CCCCC2)c2ccc(C(=O)NS(=O)(=O)N(C)C)cc21 (racemic) |  |  | 0.2 |  | 100 | 100 | > 50 |  | > 10 |  | 34 |  | 89 |
| COc1ccc2c(c1)C1CC1(C(=O)N1CCOCC1)Cn1c-2c(C2CCCCC2)c2ccc(C(=O)NS(=O)(=O)N(C)C)cc21 (racemic) | 300 |  |  |  |  |  |  |  | > 10 | 22 | 54 | 385 | 61 |
| CN(C)S(=O)(=O)NC(=O)c1ccc2c(C3CCCCC3)c3n(c2c1)CC1(C(=O)N2CCOCC2)CC1c1ccccc1-3 (racemic) | 821 |  |  |  |  |  |  |  | > 10 | 94 | 44 | 165 | 82 |
| COc1ccc2c(c1)C1CC1(C(=O)N1CC3CCC(C1)N3C)Cn1c-2c(C2CCCCC2)c2ccc(C(=O)NS(=O)(=O)N(C)C)cc21 (racemic) | 153 | 41 (≈ 62.1 µM) | 21 | 29 | 100 | 100 | 3 |  | > 16 |  | 16 |  | 39 |
| COc1ccc2c(c1)C1CC1(C(=O)N1C3CCC1CNC3)Cn1c-2c(C2CCCCC2)c2ccc(C(=O)NS(=O)(=O)N(C)C)cc21 (racemic) |  |  | 4 | 31 | 96 | 100 | 9 |  | > 10 |  | 14 |  | 32 |
| CN(C)S(=O)(=O)NC(=O)c1ccc2c(C3CCCCC3)c3n(c2c1)C[C@@]1(C(=O)N2CCOCC2)C[C@H]1c1ccccc1-3 | 218 |  |  |  |  |  |  |  | > 10 | 27 | 26 | 240 | 31 |
| CCN1CC2CCC(C1)N2C(=O)C12CC1c1cc(OC)ccc1-c1c(C3CCCCC3)c3ccc(C(=O)NS(=O)(=O)N(C)C)cc3n1C2 (racemic) | 37 |  | 41 |  | 98 | 98 | > 50 |  | > 10 |  | 4 |  | 22 |
